Results reported in patent US8889705B2, “Noscapine analogs and their use in treating cancers” (Emory University, priority 2007, dated 2014).
Like-named read-outs stand apart in the source and are kept apart here.

How the values were obtained:
MDA-MB-231 cells [1] = test: DAPI staining, cell morphology by fluorescence microscopy; type: cell-based, human; settings: 25 μM, 72 hours
Description: Cell morphology was evaluated by fluorescence microscopy following DAPI staining (Vectashield, Vector Labs, Inc., Burlingame, Calif.). MDA-MB-231 cells were grown on poly-L-lysine coated coverslips in 6-well plates and were treated with the halogenated analogs at 25 μM for 72 hours. After incubation, coverslips were fixed in cold methanol and washed with PBS, stained with DAPI, and mounted on slides. Images were captured using a BX60 microscope (Olympus, Tokyo, Japan) with an 8-bit camera (Dage-MTI, Michigan City, Ind.) and IP Lab software (Scanalytics, Fairfax, Va.). Apoptotic cells were identified by features characteristic of apoptosis (e.g. nuclear condensation, formation of membrane blebs and apoptotic bodies).

tubulin [2] = target: T1, tubulin; settings: values with literature reference [18], [12], [43]; read-out: dissociation constant (Kd) for binding to tubulin; cited from earlier work
T1 construct: other: 2 μM tubulin, 45 min at 37° C., double reciprocal plot; rate and extent of tubulin polymerization; other: 25 μM or 100 μM

MCF-7 cells [3] = test: Cell cycle analysis (propidium iodide, flow cytometry); type: cell-based, human; settings: for G0/G1 / G2/M / S / Sub-G1: MCF-7, 25 μM, mean ± S.E.M.; for percent sub-G1 cells compared with noscapine: MCF-7, lower doses (5 μM and 10 μM), 72 hours
Description: The flow cytometric evaluation of the cell cycle status was performed as described previously. Briefly, 2×10^6 cells were centrifuged, washed twice with ice-cold PBS, and fixed in 70% ethanol. Tubes containing the cell pellets were stored at 4° C. for at least 24 hours. Cells were then centrifuged at 1000×g for 10 min and the supernatant was discarded. The pellets were washed twice with 5 ml of PBS and then stained with 0.5 ml of propidium iodide (0.1% in 0.6% Triton-X in PBS) and 0.5 ml of RNase A (2 mg/ml) for 45 minutes in dark. Samples were then analyzed on a FACSCalibur flow cytometer (Beckman Coulter Inc., Fullerton, Calif.).

tubulin [4] = target: T1, tubulin; test: Tubulin binding assay (fluorescence titration, quenching of intrinsic tubulin fluorescence); parameters: species or system mammalian; settings: 2 μM tubulin, 45 min at 37° C., double reciprocal plot; read-out: dissociation constant (Kd) for binding to tubulin
Description: Fluorescence titration for determining the tubulin binding parameters was performed as described previously (Gupta and Panda, 2002). In brief, 9-nitro-nos (0-100 μM) was incubated with 2 μM tubulin in 25 mM PIPES, pH 6.8, 3 mM MgSO4 and 1 mM EGTA for 45 min at 37° C. The relative intrinsic fluorescence intensity of tubulin was then monitored in a JASCO FP-6500 spectrofluorometer (JASCO, Tokyo, Japan) using a cuvette of 0.3-cm path length, and the excitation wavelength was 295 nm. The fluorescence emission intensity of 9-nitro-nos at this excitation wavelength was negligible. A 0.3-cm path-length cuvette was used to minimize the inner filter effects caused by the absorbance of 9-nitro-nos at higher concentration ranges. In addition, the inner filter effects were corrected using a formula Fcorrected=Fobserved·antilog [(Aex+Aem)/2], where Aex is the absorbance at the excitation wavelength and Aem is the absorbance at the emission wavelength. The dissociation constant (Kd) was determined by the formula: 1/B=Kd/[free ligand]+1, where B is the fractional occupancy and [free ligand] is the concentration of free noscapine or 9-nitro-nos. The fractional occupancy (B) was determined by the formula B=ΔF/ΔFmax, where ΔF is the change in fluorescence intensity when tubulin and its ligand are in equilibrium and ΔFmax is the value of maximum fluorescence change when tubulin is completely bound with its ligand. ΔFmax was calculated by plotting 1/ΔF versus 1/ligand using total ligand concentration as the first estimate of free ligand concentration.
Fluorescence titration for determining the tubulin binding parameters was performed as described previously. In brief, 9-F-nos, 9-Cl-nos, 9-Br-nos or 9-I-nos (0-100 μM) was incubated with 2 μM tubulin in 25 mM PIPES, pH 6.8, 3 mM MgSO4, and 1 mM EGTA for 45 min at 37° C. The relative intrinsic fluorescence intensity of tubulin was then monitored in a JASCO FP-6500 spectrofluorometer (JASCO, Tokyo, Japan) using a cuvette of 0.3-cm path length, and the excitation wavelength was 295 nm. The fluorescence emission intensity of noscapine and its derivatives at this excitation wavelength was negligible. A 0.3-cm path-length cuvette was used to minimize the inner filter effects caused by the absorbance of these agents at higher concentration ranges. In addition, the inner filter effects were corrected using a formula F corrected=F observe·antilog [(Aex+Aem)/2], where Aex is the absorbance at the excitation wavelength and Aem is the absorbance at the emission wavelength. The dissociation constant (Kd) was determined by the formula: 1/B=Kd/[free ligand]+1, where B is the fractional occupancy and [free ligand] is the concentration of 9-F-nos, 9-Cl-nos, 9-Br-nos or 9-I-nos. The fractional occupancy (B) was determined by the formula B=ΔF/ΔFmax, where ΔF is the change in fluorescence intensity when tubulin and its ligand are in equilibrium and ΔFmax is the value of maximum fluorescence change when tubulin is completely bound with its ligand. ΔFmax was calculated by plotting 1/ΔF versus 1/[free ligand].

CEM cells = test: In vitro cell proliferation MTS assay; type: cell-based; settings: Homo sapiens, CCRF-CEM, 72 hours
Description: (§1) Suspension cells (CEM, CEMNLB100 and CEM/VM-1-5) were cultured in RPMI-1640 media containing 10% FBS and then seeded into 96-well plates at a density of 5×10^3 cells per well and were treated with increasing gradient concentrations of 9-nitro-nos for 72 hours. Measurement of cell proliferation was performed colorimetrically by 3-(4,5-dimethylthiazol-2-yl)-5-(3-carboxymethoxyphenyl)-2-(4-sulphophenyl)-2H-tetrazolium, inner salt (MTS) assay, using the CellTiter96 AQueous One Solution Reagent (Promega, Madison, Wis.). Cells were exposed to MTS for 3 hours and absorbance was measured using a microplate reader (Molecular Devices, Sunnyvale, Calif.) at an optical density (OD) of 490 nm. The percentage of cell survival as a function of drug concentration for both the assays was then plotted to determine the IC50 value, which stands for the drug concentration needed to prevent cell proliferation by 50%.
as §1, with “(CEM)” for “(CEM, CEMNLB100 and CEM/VM-1-5)”, “were” for “were cultured in RPMI-1640 media containing 10% FBS and then”, “increasing” for “increasing gradient”, “all halogenated analogs” for “9-nitro-nos”

MCF-7 cells [5] = test: Sulforhodamine B cell proliferation assay; type: cell-based, human; settings: for IC50: MCF-7, 72 hours, SRB
Description: (§2) Sulforhodamine B (SRB) assay: The cell proliferation assay was performed in 96-well plates as described previously. Adherent cells (MCF-7 and MDA-MB-231) were seeded in 96-well plates at a density of 5×10^3 cells per well. They were treated with increasing concentrations of the halogenated analogs the next day while in log-phase growth. After 72 hours of drug treatment, cells were fixed with 50% trichloroacetic acid and stained with 0.4% sulforhodamine B dissolved in 1% acetic acid. After 30 minutes, cells were then washed with 1% acetic acid to remove the unbound dye. The protein-bound dye was extracted with 10 mM Tris base to determine the optical density at 564-nm wavelength.

MDA-MB-231 cells [6] = test: Sulforhodamine B cell proliferation assay; type: cell-based; settings: Homo sapiens; MDA-MB-231, 72 hours, SRB
Description: as §2

| Kd (tubulin [4]) [µM] | IC50 (MCF-7 cells [5]; Homo sapiens, MCF7, 72 h) [µM] | Structure (SMILES) | nuclear morphology (features of apoptotic cells), DAPI (MDA-MB-231 cells [1]) | G0/G1 (MCF-7 cells [3]; 0 h) [%] | G2/M (MCF-7 cells [3]; 0 h) [%] | S (MCF-7 cells [3]; 0 h) [%] | Sub-G1 (MCF-7 cells [3]; 0 h) [%] | G0/G1 (MCF-7 cells [3]; 24 h) [%] | G2/M (MCF-7 cells [3]; 24 h) [%] | S (MCF-7 cells [3]; 24 h) [%] | Sub-G1 (MCF-7 cells [3]; 24 h) [%] | G0/G1 (MCF-7 cells [3]; 48 h) [%] | G2/M (MCF-7 cells [3]; 48 h) [%] | S (MCF-7 cells [3]; 48 h) [%] | Sub-G1 (MCF-7 cells [3]; 48 h) [%] | G0/G1 (MCF-7 cells [3]; 72 h) [%] | G2/M (MCF-7 cells [3]; 72 h) [%] | S (MCF-7 cells [3]; 72 h) [%] | Sub-G1 (MCF-7 cells [3]; 72 h) [%] | IC50 (CEM cells) [µM] | other results |
| --- | --- | --- | --- | --- | --- | --- | --- | --- | --- | --- | --- | --- | --- | --- | --- | --- | --- | --- | --- | --- | --- |
| 40 ± 8 | 1.9 ± 0.3 | COc1ccc2c(c1OC)C(=O)OC2C1c2c(c(Cl)c3c(c2OC)OCO3)CCN1C (stereo not shown) [9-Cl-nos] | condensed chromosomes, numerous fragmented micronuclei, and apoptotic bodies are evident | 69 ± 5.6 | 20.7 ± 3.4 | 7.5 ± 1.6 | 1.4 ± 0.5 | 11.5 ± 2.7 | 59.7 ± 5.2 | 4.3 ± 1.4 | 15.3 ± 2.5 | 8 ± 3.3 | 42.4 ± 3.8 | 4 ± 1.1 | 37.8 ± 3.2 | 5.9 ± 1.9 | 35.3 ± 3.9 | 4.1 ± 1.4 | 50.2 ± 2.5 | 1.2 ± 0.3 | Kd (tubulin [2]): 40 ± 8 µM; percent sub-G1 cells compared with noscapine (MCF-7 cells [3]): higher; IC50 (MCF-7 cells [5]): 3.5 ± 0.4 µM; IC50 (MDA-MB-231 cells [6]): 1.9 ± 0.3 µM |
| 22 ± 4 | 45.6 ± 3.1 | COc1ccc2c(c1OC)C(=O)O[C@@H]2[C@H]1c2c(c(I)c3c(c2OC)OCO3)CCN1C [9-I-nos, (S)-6,7-dimethoxy-3-((R)-4-methoxy-6-methyl-9-iodo-5,6,7,8-tetrahydro-[1,3]dioxolo[4,5-g]isoquinolin-5-yl)isobenzofuran-1(3H)-one] | condensed chromosomes, numerous fragmented micronuclei, and apoptotic bodies are evident | 60.6 ± 4.6 | 23.1 ± 3.7 | 13.9 ± 2.3 | 0.3 ± 0.2 | 17 ± 2.3 | 44.5 ± 5.1 | 3.1 ± 1.3 | 7.7 ± 1.7 | 15.4 ± 4.5 | 25.9 ± 4.1 | 2.9 ± 0.6 | 28.1 ± 3.1 | 17 ± 1.9 | 20.7 ± 2.2 | 4.9 ± 2.2 | 30.1 ± 3.1 | 38.9 ± 3.5 | IC50 (MDA-MB-231 cells [6]): 25.6 ± 2.4 µM |
| 54 ± 9.1 | 1 ± 0.2 | COc1ccc2c(c1OC)C(=O)O[C@@H]2[C@H]1c2c(c(Br)c3c(c2OC)OCO3)CCN1C [9-Br-nos, (S)-6,7-dimethoxy-3-((R)-4-methoxy-6-methyl-9-bromo-5,6,7,8-tetrahydro-[1,3]dioxolo[4,5-g]isoquinolin-5-yl)isobenzofuran-1(3H)-one] | condensed chromosomes, numerous fragmented micronuclei, and apoptotic bodies are evident | 53.3 ± 2.8 | 28.9 ± 4.4 | 12.7 ± 1.8 | 0.2 ± 0.1 | 10.4 ± 1.8 | 61.9 ± 3.6 | 3.4 ± 1.2 | 6.9 ± 2.4 | 6.5 ± 2.5 | 43.8 ± 3.4 | 2.8 ± 0.7 | 35.1 ± 3.5 | 4.6 ± 2.1 | 33.7 ± 3.5 | 2.4 ± 1.6 | 49.6 ± 2.7 | 1.9 ± 0.2 | Kd (tubulin [2]): 54 ± 9.1 µM; percent sub-G1 cells compared with noscapine (MCF-7 cells [3]): higher; fold higher cytotoxic activity than noscapine (MCF-7 cells [5]; MCF-7, ratio of IC50): ~40 fold; IC50 (MDA-MB-231 cells [6]): 3.3 ± 0.4 µM |
| 81 ± 8 | 3.3 ± 0.8 | COc1ccc2c(c1OC)C(=O)O[C@@H]2[C@H]1c2c(c(F)c3c(c2OC)OCO3)CCN1C [9-F-nos, (S)-6,7-dimethoxy-3-((R)-4-methoxy-6-methyl-9-fluoro-5,6,7,8-tetrahydro-[1,3]dioxolo[4,5-g]isoquinolin-5-yl)isobenzofuran-1(3H)-one] | condensed chromosomes, numerous fragmented micronuclei, and apoptotic bodies are evident | 67.7 ± 5.6 | 18.5 ± 2.2 | 11.9 ± 1.5 | 0.2 ± 0.04 | 10.8 ± 2.4 | 65.9 ± 4.4 | 3.8 ± 1.1 | 6.8 ± 2.1 | 7.9 ± 2.8 | 43.7 ± 2.9 | 3.5 ± 0.8 | 34.5 ± 2.5 | 5.2 ± 2.2 | 34.4 ± 3.4 | 3.6 ± 1.5 | 48.6 ± 3.3 | 2.3 ± 0.7 | percent sub-G1 cells compared with noscapine (MCF-7 cells [3]): higher; IC50 (MDA-MB-231 cells [6]): 8.2 ± 0.6 µM |
